According to patent US6579851B2, “Effects of glucagon-like peptide-1 (7-36) on antro-pyloro-duodenal motility” (Amylin Pharmaceuticals, Inc., priority 2000, dated 2003):
Marks after values point to notes of the source that are not given here.

Assays:
Assay type in all cases: in vivo, human
[1] = Plasma insulin during intravenous GLP-1 infusion (immunoassay)
Experimental: (§1) All values were expressed as mean±SEM. […] Differences were considered significant at P<0.05.
(§2) All studies were performed after an overnight fast.
The plasma was stored at −20° C. until assayed.

pyloric motility = assay: Pyloric motility (IPPW, pyloric tone) and duodenal phase III by perfusion manometry; conditions: for Volunteers with duodenal phase III: within 10 min after GLP-1 infusion; for Pyloric Motility IPPW: actual values; for Pyloric tone: values over basal
Experimental: (§3) Inhibition of antro-duodenal activity is assessed directly by motility recordings using methods that are well known to the skilled artisan. Contractile events are analyzed with a computer and validated software (Katschinski et al., Gastroenterol. 103, 383-91 (1992)) and only peaks with amplitudes of at least 10 mmHg and a duration of at least 2 s are considered true contractions. Duodenal phase III is defined as the occurrence of regular contractions at a frequency of ≧10/min for at least 2 min in the duodenum propagated aborally.
As used herein, “inhibition” of antro-pyloro-duodenal motility is defined as a reduction in the motility index. Other methods for measuring motility can be used. One of skill in the art will appreciate that a significant inhibition, including total inhibition, of motility will be useful.
The present invention also relates to therapeutic methods associated with stimulating pyloric motility. Two parameters used to describe pyloric motility are: 1) Isolated pyloric pressure waves (IPPW), defined as contractions registered by the sleeve with or without simultaneous contractions in maximally one sleeve-side-hole in the absence of associated (±3 sec) waves of any amplitude in the adjacent antral and duodenal side-holes and 2) pyloric tone. Pyloric tone is measured by deducting the basal pressure recorded by the antral side hole at the proximal end of the sleeve, from the basal pressure recorded by the sleeve. Basal pressures is defined as the mean pressure after excluding contractions; it is obtained each minute and used to calculate mean pyloric tone.
as §1, §2
(§4) Perfusion manometry was recorded using a nine-lumen duodenal sleeve/side-hole catheter (Dentsleeve, South Australia, Australia). The manometric assembly incorporated a 4.5 cm long sleeve sensor, two antral side-holes (2 cm apart), and three duodenal side-holes (2 cm apart), beginning at the proximal and distal end of the sleeve, respectively. Two more side-holes were positioned across the sleeve spaced 1.5 cm apart. An additional lumen located 12 cm distal to the sleeve sensor was used for duodenal perfusion.
(§5) The correct position of the duodenal probe with the sleeve array straddling the pylorus was fluoroscopically checked before start of each experiment, and monitored throughout each study by measuring the transmucosal potential difference at the distal antral and the proximal duodenal port, as previously described (Schirra et al. J Clin Invest 97, 92-103 (1996)). A difference of at least −15 mV indicated correct transpyloric position of the tube.
(§6) The motility channels were perfused at a rate of 0.3 ml/min using a low-compliance pneumohydraulic pump (Arndorfer Medical Specialists, Greendale, Wis.). Pressures were measured by external transducers. Data were simultaneously recorded on the screen of a multichannel chart system (PC Polygraph, Synectics Medical, Stockholm, Sweden) and stored in the memory of a personal computer. Data were sampled and digitized at 8 Hz followed by digital smoothing by a factor of 2.

antro-duodenal motility = assay: Antro-duodenal motility by perfusion manometry; conditions: for Duodenal Motility Contractions: sum of three duodenal side holes; for Antral Motility Contractions: sum of two antral side holes
Experimental: as §3
In one embodiment, the data are analyzed in 10-min segments separately for antrum and duodenum by summarizing (frequency, motility index) or averaging (amplitude) the values derived from, the two antral and three duodenal side holes, respectively. Motility indexes are identified as the area under the contractions and are expressed in mmHg·s·min^−1. Antral contractions are determined to be antro-pyloro-duodenally propagated waves if the onset of the pressure wave recorded in the most proximal duodenal side hole, occurs within 5 sec after the onset of a pressure wave recorded in one of the antral side holes and if both wave are registered by all side holes in between.
as §2, §4, §5, §6

[2] = intraduodenal lipid, high dose 1.2 pmol·kg−1·min−1 iv.
[3] = intraduodenal lipid, low dose 0.4 pmol·kg−1·min−1 iv.
[4] = intraduodenal saline, high dose 1.2 pmol·kg−1·min−1 iv.
[5] = intraduodenal saline, low dose 0.4 pmol·kg−1·min−1 iv.
[6] = low dose GLP-1, interdigestive state
[7] = low dose GLP-1, interdigestive, duodenal saline

## CC[C@H](C)[C@H](NC(=O)[C@H](Cc1ccccc1)NC(=O)[C@H](CCC(=O)O)NC(=O)[C@H](CCCCN)NC(=O)[C@H](C)NC(=O)[C@H](C)NC(=O)[C@H](CCC(N)=O)NC(=O)CNC(=O)[C@H](CCC(=O)O)NC(=O)[C@H](CC(C)C)NC(=O)[C@H](Cc1ccc(O)cc1)NC(=O)[C@H](CO)NC(=O)[C@H](CO)NC(=O)[C@@H](NC(=O)[C@H](CC(=O)O)NC(=O)[C@H](CO)NC(=O)[C@@H](NC(=O)[C@H](Cc1ccccc1)NC(=O)[C@@H](NC(=O)CNC(=O)[C@H](CCC(=O)O)NC(=O)[C@H](C)NC(=O)[C@@H](N)Cc1c[nH]cn1)[C@@H](C)O)[C@@H](C)O)C(C)C)C(=O)N[C@@H](C)C(=O)N[C@@H](Cc1c[nH]c2ccccc12)C(=O)N[C@@H](CC(C)C)C(=O)N[C@H](C(=O)N[C@@H](CCCCN)C(=O)NCC(=O)N[C@@H](CCCNC(=N)N)C(N)=O)C(C)C [GLP-1, glucagon-like peptide-1(7-36)amide]
[1]; [2]
  Insulin (AUC over basal): 31.4 ± 8.4∥ mU/l · 60 min
[1]; [3]
  Insulin (AUC over basal): 24.7 ± 4.8∥ mU/l · 60 min
[1]; [4]
  Insulin (AUC over basal): 11.9 ± 5.1 mU/l · 60 min
[1]; [5]
  Insulin (AUC over basal): 11.3 ± 2.4 mU/l · 60 min
Pyloric motility; GLP-1 infusion in conjunction with lipid perfusion
  Subjects with duodenal phases III: two out of 11
Pyloric motility; high dose GLP-1, interdigestive state
  Volunteers with duodenal phase III: five
Pyloric motility; [2]
  Pyloric Motility IPPW: 15.5 ± 2.1 number/10 min
  Pyloric tone: 8.6 ± 1.0 mmHg
Pyloric motility; [3]
  Pyloric Motility IPPW: 15.7 ± 2.5 number/10 min
  Pyloric tone: 7.4 ± 1.0 mmHg
Pyloric motility; [4]
  Pyloric Motility IPPW: 8.6 ± 1.3 number/10 min
  Pyloric tone: 7.3 ± 1.5 mmHg
Pyloric motility; [5]
  Pyloric Motility IPPW: 10.1 ± 1.9 number/10 min
  Pyloric tone: 5.3 ± 0.9 mmHg
Pyloric motility; [6]
  Time until increase of pyloric tone was fully established: ≤ 20 min
  Time until increase of pyloric tone was significant: ≤ 10 min
  Volunteers with duodenal phase III: seven out of 11
antro-duodenal motility; [2]
  Antral Amplitude: 23.0 ± 2.7 mmHg
  Antral Motility Index: 628 ± 249 mmHg*s/60 min
  Duodenal Amplitude: 19.2 ± 3.1 mmHg
  Duodenal Motility Index: 1174 ± 499 mmHg*s/60 min
  Duodenal Motility Contractions: 16.6 ± 5.9 number / 60 min
  Antral Motility Contractions: 9.2 ± 2.9 number / 60 min
antro-duodenal motility; [3]
  Antral Amplitude: 23.6 ± 3.1 mmHg
  Antral Motility Index: 880 ± 351 mmHg*s/60 min
  Duodenal Amplitude: 26.0 ± 3.3 mmHg
  Duodenal Motility Index: 2776 ± 890 mmHg*s/60 min
  Duodenal Motility Contractions: 29.5 ± 5.8 number / 60 min
  Antral Motility Contractions: 12.1 ± 4.1 number / 60 min
antro-duodenal motility; [4]
  Antral Amplitude: 21.1 ± 3.1 mmHg
  Antral Motility Index: 957 ± 322 mmHg*s/60 min
  Antro-Pyloro-Duodenal Propagated Contractions: 0.0* number/60 min
  Duodenal Amplitude: 17.5 ± 1.9 mmHg
  Duodenal Motility Index: 1119 ± 226 mmHg*s/60 min
  Duodenal Motility Contractions: 16.6 ± 3.9 number / 60 min
  Antral Motility Contractions: 9.6 ± 2.8 number / 60 min
antro-duodenal motility; [5]
  Antral Amplitude: 31.1 ± 3.1 mmHg
  Antral Motility Index: 1478 ± 564 mmHg*s/60 min
  Antro-Pyloro-Duodenal Propagated Contractions: 0.0* number/60 min
  Duodenal Amplitude: 25.0 ± 2.5 mmHg
  Duodenal Motility Index: 3447 ± 1624 mmHg*s/60 min
  Duodenal Motility Contractions: 36.0 ± 14.7 number / 60 min
  Antral Motility Contractions: 12.6 ± 2.8 number / 60 min
antro-duodenal motility; [7]
  Onset of inhibition of antro-duodenal motility after starting GLP-1: ≤ 2 min
  Time to nearly complete inhibition of antro-duodenal motility: ≤ 20 min
